Source: ChEMBL document CHEMBL1129868 (Bioorg Med Chem Lett, 1997)

Columns and labels:
[1] = target: Beta-1 adrenergic receptor (Cavia porcellus, UniProt B0FL73); assay: Tested for beta-1-adrenergic blocking effect by measuring the ability to inhibit the positive inotropic effect of isoproterenol on the isolated right atrium of guinea pigs; format: functional, tissue-based, Cardiac atrium
Adrenergic receptor beta = Adrenergic receptor beta (Rattus norvegicus, UniProt P18090+P10608+P26255); assay: The compound was tested for its ability to inhibit (-)-[3H]dihydroalprenolol binding to beta-adrenergic receptor sites in rat cortex
[2] = Ratio of beta-1-adrenergic blocking effect to that of beta 2 -adrenergic blocking effect; format: functional

Beta-1 adrenergic receptor, sequence (B0FL73 whole entry): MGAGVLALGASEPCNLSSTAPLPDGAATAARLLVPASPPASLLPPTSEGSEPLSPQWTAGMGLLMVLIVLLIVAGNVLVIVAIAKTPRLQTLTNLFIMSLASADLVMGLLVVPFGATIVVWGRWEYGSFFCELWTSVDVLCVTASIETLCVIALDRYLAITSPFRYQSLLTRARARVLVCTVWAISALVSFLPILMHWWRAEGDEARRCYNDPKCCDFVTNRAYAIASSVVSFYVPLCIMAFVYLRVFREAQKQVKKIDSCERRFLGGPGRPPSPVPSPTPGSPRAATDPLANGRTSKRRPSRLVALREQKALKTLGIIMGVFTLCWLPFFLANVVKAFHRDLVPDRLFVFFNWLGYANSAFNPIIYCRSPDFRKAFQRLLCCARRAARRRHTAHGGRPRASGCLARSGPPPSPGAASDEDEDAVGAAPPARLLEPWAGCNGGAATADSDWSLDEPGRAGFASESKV

| IC50 [1] | IC50 (Adrenergic receptor beta) | SMILES | Ratio [2] |
| --- | --- | --- | --- |
| 1350 nM | 1540 nM | COCCc1ccc(OC(F)(F)[C@@H](O)CNC(C)C)cc1 | 0.63 |
|  | > 100000 nM | COCCc1ccc(OC(F)(F)[C@H](O)CNC(C)C)cc1 |  |
